One data set relates to Daphnia magna. The data set is described as follows: Acute toxicity, immobilization test. It is filed as in vivo. Conditions: Daphnia magna immobilization, 48 h of exposure; 95% confidence intervals in parentheses. As for the experimental part: Aquatic toxicity evaluation was performed using Daphnia magna following established protocols. This bioassay method employs laboratory-cultured freshwater microcrustaceans to evaluate surfactant toxicity in aquatic environments. Test organisms were utilized during their initial 24 h life stage to ensure consistency. The endpoint measurement focused on mobility impairment, specifically the loss of swimming capability after gentle stimulation lasting 15 s. Testing conditions included controlled water chemistry parameters: pH maintained at 8.0, calcium-to-magnesium ratio of 4:1, and total hardness of 250 mg/L as CaCO3. All experiments were conducted under dark conditions at 20 °C. The experimental design incorporated ten test concentrations for each surfactant compound, distributed in geometric progression. Each concentration level included 20 Daphnia specimens distributed across four replicate groups of five organisms each. Mobility assessment occurred at 48 h post-exposure, with immobilization percentages plotted against concentration using probability–logarithmic scaling.

Data set [1] deals with Candida tropicalis ATCC 7349. The data set is described as follows: MIC broth microdilution. The format is cell-based. Particulars: C. tropicalis. The method, then: (§1) The antimicrobial activity of these compounds was assessed against selected yeast and bacterial strains: Candida albicans ATCC 90028 (CA9), Candida rugosa ATCC 10571 (CR), Candida glabrata ATCC 66032 (CG), Candida parapsilosis ATCC 22019 (CP), Candida tropicalis ATCC 7349 (CT), Candida auris ATCC 21092 (CA), and Cyberlindnera jadinii ATCC 60459. Frozen yeast stocks were plated on Sabouraud agar (SBA) and incubated at 30 °C for 24 h. Three to four colonies from each strain were then suspended in RPMI 1640 (Roswell Park Memorial Institute medium, Sigma- Aldrich, Merck, Darmstadt, Germany) to prepare bacterial dispersions of ~1.5 × 10^6 CFU/mL.
(§2) A broth microdilution assay was used to calculate MIC values. Twofold serially diluted compounds in RPMI 1640 medium (from 256 to 2 μg/mL), were dispensed (100 μL per well) into a 96-well plate. Then, 100 μL of a yeast starter culture was added to each well to reach a final inoculum of 7.5 × 10^5 CFU/mL. Wells containing only nutrient broth without the tested surfactant served as growth controls. Microbial growth was assessed by turbidity, which reflects increases in biomass and cell count. […] To confirm the obtained MICs, 20 μL of 0.015% (w/v) resazurin was dispensed to each well and incubated for 3 h at 30 °C. Metabolic activity was evidenced by a color change from blue to pink, thereby confirming the MIC value.
For orientation: In broth dilution the organism is exposed to a series of concentrations in liquid medium.

The test system of data set [2] is Candida parapsilosis ATCC 22019. Kind of data set: MIC broth microdilution. Particulars: C. parapsilosis. It is filed as cell-based. As for the experimental part:
as §1, §2

In data set [3] the test system is Candida rugosa ATCC 10571. Kind of data set: MIC broth microdilution. The format is cell-based. Particulars: C. rugosa. As for the experimental part:
as §1, §2

Data set [4] deals with Candida glabrata ATCC 66032. The data set is described as follows: MIC broth microdilution. The format is cell-based. Conditions: C. glabrata. The method, then: as §1, §2
For data set [5], the system named is Candida albicans ATCC 90028. The data set is described as follows: MIC broth microdilution. It is filed as cell-based. Particulars: C. albicans. As for the experimental part:
as §1, §2

Data set [6] deals with Cyberlindnera jadinii ATCC 60459 (C. jardinii). Kind of data set: MIC broth microdilution. The format is cell-based. Conditions: C. jardinii. As for the experimental part:
as §1, §2

The subject of another data set is Candida auris ATCC 21092. The data set is described as follows: MIC broth microdilution. The format is cell-based. Particulars: C. auris. As for the experimental part: as §1, §2
A further data set in a line: cmc by conductivity. Conditions: conductivity measurements; BAC mixture C12 (70%) and C14 (30%). It is filed as physicochemical.
Another data set deals with erythrocytes. Kind of data set: Hemolytic activity assay. It is filed as cell-based. Particulars: rabbit erythrocytes. The method, then: Fresh rabbit blood was obtained from the Animal Facility of the CID-CSIC (Research and Development Center, Spanish National Research Council, Barcelona, Spain). Sample collection was conducted in strict compliance with the bioethical guidelines established under Spanish legislation. Erythrocytes were isolated by centrifugation (3000 rpm/10 min). The supernatant was discarded, and the erythrocytes were washed three times with PBS (phosphate-buffered saline, pH 7.4) and then resuspended in PBS at a concentration of 8 × 10^9 cells/mL. Subsequently, varying volumes of a concentrated surfactant solution were added to Eppendorf tubes containing 25 μL of erythrocyte suspension. PBS was then added to bring the total volume to 1 mL. The samples were gently shaken for 10 min at room temperature and centrifuged at 10,000 rpm for 5 min. Hemolysis was evaluated by measuring the absorbance of the supernatant at 540 nm and comparing it to that of a 100% hemolysis control (erythrocytes treated with distilled water). The HC50, defined as the surfactant concentration that induces 50% hemolysis, was determined from the concentration–response curves: % hemolysis= Abstest compound/AbsBasal haemolytic activity ×100

[7] abbreviates: value in parentheses, read-out: MIC.

Like-named read-outs stand apart in the source and are kept apart here.

In the case of “benzalkonium chloride [BAC, reference compound]”, in the data set with Daphnia magna, the EC50 is listed as 0.039 (0.023–0.05) μg/mL. Besides, the MIC (as a rule, the least concentration at which growth counts as inhibited) in data set [1] (RPMI 1640, 24 h, 30 °C) was found to be 4 µg/mL; in [1] (setting [7]), 12 µM; in data set [2] (RPMI 1640, 24 h, 30 °C), 4 µg/mL; in [2] (setting [7]), 12 µM; in data set [3] (RPMI 1640, 24 h, 30 °C), 8 µg/mL; in [3] (setting [7]) it was 24 µM. Moreover, the MIC in data set [4] (RPMI 1640, 24 h, 30 °C) was 8 µg/mL; in [4] (setting [7]), 24 µM; in [5] (RPMI 1640, 24 h, 30 °C) it was 8 µg/mL; in data set [5] (setting [7]) it was 24 µM; in data set [6] (RPMI 1640, 24 h, 30 °C) it was 16 µg/mL; in data set [6] (setting [7]) it was 48 µM. Moreover, the MIC is 32 µg/mL in the data set with Candida auris ATCC 21092 (RPMI 1640, 24 h, 30 °C) and 98 µM in the data set with Candida auris ATCC 21092 (setting [7]). In addition, the cmc in the data set “cmc by conductivity” is 5.2 mM. Also, the HC50 (as a rule, the concentration giving 50% haemolysis) in the data set with erythrocytes (10 min, room temperature) came out at 31 ± 0.3 µg/mL; with erythrocytes (value in parentheses) it was 92 ± 0.8 µM.

For the origin of these results see paper PMC12452389, “Arginine-Derived Cationic Surfactants Containing Phenylalanine and Tryptophan: Evaluation of Antifungal Activity, Biofilm Eradication, Cytotoxicity, and Ecotoxicity” (Journal of Xenobiotics, 2025).
